The supplement of paper PMC13380429

Experiments:
Conditions in all cases: 72 h
Calu-3 [1] = experiment: relative viability EC50 (midpoint between 100% and the lowest measured viability); higher = less toxic
Vero E6 [2] = experiment: as above
HepG2 [3] = experiment: as above
U2OS [4] = experiment: as above
Caco-2 [5] = experiment: as above
Calu-3 [6] = experiment: drug sensitivity score (DSS) for viability; higher = more toxic; extreme values may be limits of the assay
Vero E6 [7] = experiment: as above
HepG2 [8] = experiment: as above
U2OS [9] = experiment: as above
Caco-2 [10] = experiment: as above
Calu-3 [11] = experiment: cell viability relative to DMSO; higher = less toxic
Vero E6 [12] = experiment: as above
HepG2 [13] = experiment: as above
U2OS [14] = experiment: as above
Caco-2 [15] = experiment: as above

Structure (SMILES) | relative viability EC50 (Calu-3 [1]) [µM] | relative viability EC50 (Vero E6 [2]) [µM] | relative viability EC50 (HepG2 [3]) [µM] | relative viability EC50 (U2OS [4]) [µM] | relative viability EC50 (Caco-2 [5]) [µM] | drug sensitivity score (Calu-3 [6]) | drug sensitivity score (Vero E6 [7]) | drug sensitivity score (HepG2 [8]) | drug sensitivity score (U2OS [9]) | drug sensitivity score (Caco-2 [10]) | cell viability (Calu-3 [11]; 1 nM) [%] | cell viability (Calu-3 [11]; 10 nM) [%] | cell viability (Calu-3 [11]; 100 nM) [%] | cell viability (Calu-3 [11]; 1000 nM) [%] | cell viability (Calu-3 [11]; 10000 nM) [%] | cell viability (Vero E6 [12]; 1 nM) [%] | cell viability (Vero E6 [12]; 10 nM) [%] | cell viability (Vero E6 [12]; 100 nM) [%] | cell viability (Vero E6 [12]; 1000 nM) [%] | cell viability (Vero E6 [12]; 10000 nM) [%] | cell viability (HepG2 [13]; 1 nM) [%] | cell viability (HepG2 [13]; 10 nM) [%] | cell viability (HepG2 [13]; 100 nM) [%] | cell viability (HepG2 [13]; 1000 nM) [%] | cell viability (HepG2 [13]; 10000 nM) [%] | cell viability (U2OS [14]; 1 nM) [%] | cell viability (U2OS [14]; 10 nM) [%] | cell viability (U2OS [14]; 100 nM) [%] | cell viability (U2OS [14]; 1000 nM) [%] | cell viability (U2OS [14]; 10000 nM) [%] | cell viability (Caco-2 [15]; 1 nM) [%] | cell viability (Caco-2 [15]; 10 nM) [%] | cell viability (Caco-2 [15]; 100 nM) [%] | cell viability (Caco-2 [15]; 1000 nM) [%] | cell viability (Caco-2 [15]; 10000 nM) [%]
CN[C@@H]1[C@@H](O)[C@@H](O[C@@H]2[C@@H](O)[C@H](O[C@H]3O[C@H](CN)[C@@H](O)[C@H](O)[C@H]3O)[C@@H](N)C[C@H]2NC(=O)[C@@H](O)CN)OC[C@]1(C)O [isepamicin] | > 10 | > 10 | > 10 | > 10 | > 10 | 0 | 0 | 0 | 0 | 0 | 96.4 | 90.7 | 91.5 | 92.6 | 99.3 | 91.5 | 98.3 | 96.6 | 95.5 | 101 | 98.8 | 95.8 | 96.6 | 107 | 103 | 97.6 | 100 | 94.6 | 99.1 | 102 | 89.7 | 97 | 89.1 | 98 | 91.8
Cc1cc(O)c2c(c1)C(=O)c1cccc(O)c1C2=O [chrysophanic-acid] | > 10 | > 10 | > 10 | > 10 | > 10 | 0 | 0 | 0 | 0 | 0.8 | 104 | 98.1 | 92.4 | 91.2 | 93 | 93.5 | 97.3 | 100 | 93.5 | 96.1 | 98.4 | 104 | 97.8 | 95.7 | 105 | 99.5 | 103 | 96.7 | 104 | 97.7 | 102 | 91.2 | 92 | 92.5 | 88.9
CNCCc1ccc(O)c(O)c1 [deoxyepinephrine] | > 10 | > 10 | > 10 | > 10 | > 10 | 0 | 0 | 0 | 0 | 0 | 94.5 | 104 | 95.8 | 91.6 | 98.1 | 107 | 99.6 | 100 | 101 | 103 | 97.5 | 97.2 | 108 | 91.8 | 96.7 | 95 | 97 | 94.3 | 101 | 95.5 | 95.5 | 95.8 | 106 | 102 | 89.6
COC(=O)[C@H]1[C@H]2C[C@@H]3c4[nH]c5cc(OC)ccc5c4CCN3C[C@H]2C[C@@H](OC(=O)c2cc(OC)c(OC)c(OC)c2)[C@@H]1OC [reserpine] | > 10 | > 10 | > 10 | > 10 | > 10 | 0 | 0 | 0 | 0 | 0 | 107 | 92.5 | 109 | 102 | 111 | 112 | 95.2 | 96.6 | 104 | 97.1 | 106 | 93.5 | 81.3 | 96 | 96.6 | 98 | 97.7 | 95.8 | 94.8 | 99.2 | 110 | 90.1 | 96.4 | 91.9 | 101
Cc1[nH]c2ccc(F)cc2c1-c1nc2c3cccnc3c3ncccc3c2[nH]1 [APTO-253] | 0.639 | > 10 | 2.07 | 1.47 | > 10 | 13 | 0 | 4.5 | 7 | 0.6 | 111 | 93.9 | 95.2 | 36.6 | 5.3 | 96.2 | 94.6 | 94 | 95.9 | 86.9 | 93.2 | 97.2 | 96.7 | 92.1 | 42 | 96.7 | 96.6 | 97.9 | 80.1 | 27.4 | 95.9 | 100 | 94.7 | 88.3 | 90.3
Nc1ncnc2c1ncn2[C@@H]1O[C@H](COP(=O)(O)O)[C@@H](O)[C@H]1O [adenosine-phosphate] | > 10 | > 10 | > 10 | > 10 | > 10 | 0 | 0 | 0 | 0 | 0 | 89.1 | 93.5 | 93.6 | 101 | 89.6 | 101 | 108 | 110 | 91 | 102 | 90.2 | 94.5 | 101 | 85.6 | 96 | 97.9 | 102 | 94.6 | 104 | 107 | 114 | 98 | 86.4 | 113 | 92.8
Cc1[nH]c2ccccc2c1CCNCc1ccc(/C=C/C(=O)NO)cc1 [panobinostat] | 0.175 | 0.142 | 0.052 | 0.127 | 0.136 | 19.4 | 22.3 | 26.6 | 22.6 | 22.3 | 113 | 113 | 67.8 | 17.5 | 6 | 101 | 97.8 | 70.8 | -0.4 | -0.5 | 104 | 80.6 | 36.8 | -0.3 | -0.4 | 99.2 | 97 | 62.4 | 1.4 | 0.8 | 99.8 | 110 | 68.4 | 1 | 1.1
Cn1cc(C(=O)C(=O)N[C@H]2CN3CCC2CC3)c2ccccc21 | > 10 | > 10 | > 10 | > 10 | > 10 | 0 | 0 | 0 | 0 | 0 | 99.9 | 102 | 98.9 | 100 | 94.5 | 112 | 114 | 105 | 97.9 | 98.5 | 108 | 94.2 | 114 | 95.3 | 96.9 | 96.8 | 107 | 99.2 | 101 | 96.1 | 95.7 | 99.6 | 104 | 99.9 | 110
Cc1nccn1CC1CCc2c(c3ccccc3n2C)C1=O (stereo unspecified) [ondansetron] | > 10 | > 10 | > 10 | > 10 | > 10 | 0 | 0 | 0 | 0 | 0 | 84.8 | 90.1 | 81.6 | 97.6 | 89.2 | 101 | 97.4 | 103 | 95.6 | 103 | 95.6 | 83.5 | 97 | 105 | 93.3 | 96.5 | 99.4 | 103 | 99.4 | 102 | 102 | 99.4 | 94.1 | 81.2 | 104
CC(C)c1nc(CN(C)C(=O)N[C@H](C(=O)N[C@@H](Cc2ccccc2)C[C@H](O)[C@H](Cc2ccccc2)NC(=O)OCc2cncs2)C(C)C)cs1 [Ritonavir] | > 10 | > 10 | > 10 | > 10 | > 10 | 0.1 | 0 | 0 | 0 | 1.2 | 97.4 | 89.1 | 94.9 | 103 | 86.3 | – | – | – | – | – | 103 | 93.9 | 97.2 | 96.8 | 93.8 | 93.7 | 97.8 | 100 | 99.2 | 96.4 | 99.9 | 90.5 | 94.4 | 96.9 | 77.6
Nc1nc2c(cnn2CCc2ccccc2)c2nc(-c3ccco3)nn12 | > 10 | > 10 | 0.354 | > 10 | – | 0 | 0 | 14.9 | 0 | 4.1 | 88.2 | 100 | 95.7 | 113 | 90.7 | 107 | 99.8 | 98.2 | 99.6 | 96.1 | 97.7 | 101 | 90.9 | 25.5 | 12.7 | 98 | 99.8 | 92.7 | 98.6 | 100 | 96.7 | 104 | 93.5 | 78.3 | 67.5
O=C1NC(=O)c2cc(Nc3ccc(F)cc3)c(Nc3ccc(F)cc3)cc21 | > 10 | > 10 | 1.91 | > 10 | – | 0.5 | 0 | 4 | 0 | 2.2 | 106 | 106 | 94.7 | 106 | 77.8 | 96.9 | 97.1 | 99.9 | 93.5 | 103 | 101 | 93.9 | 101 | 91.8 | 49.7 | 95 | 100 | 97.2 | 101 | 87.9 | 93.9 | 88.6 | 95.2 | 93.3 | 70.2
Oc1cc2c(cc1O)CN(C(=S)NCCc1ccc(Cl)cc1)CCC2 [capsazepine] | > 10 | > 10 | > 10 | > 10 | – | 0 | 0 | 0.1 | 0 | 2.5 | 107 | 103 | 110 | 104 | 92.6 | 101 | 101 | 101 | 92.2 | 98.8 | 103 | 114 | 107 | 100 | 86.9 | 98.2 | 103 | 97.3 | 101 | 97.7 | 90.9 | 98.4 | 91.2 | 90.2 | 65.8
O[C@H]1[C@H](O)[C@@H](O)[C@H](O)[C@@H](O)[C@H]1O [inositol] | > 10 | > 10 | > 10 | > 10 | – | 0 | 0 | 0 | 0 | 1 | 112 | 94.6 | 104 | 96.1 | 100 | 110 | 101 | 98.1 | 99.4 | 99.5 | 123 | 102 | 105 | 93.3 | 98.8 | 106 | 104 | 96.7 | 103 | 101 | 95.8 | 111 | 91 | 105 | 69.8
